# Source: PubChem BioAssay (NCI)
# “And” between values parts separate entries of the source, which are not always exact repeats. Equal entries are not always repeated.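 Where inhibition never reached the appropriate level, the endpoint shown equals the highest concentration tested. Otherwise, values were interpolated linearly from a five-concentration, 48-hour dose response in 96-well plates. GI50 marks 50% less growth. TGI: total growth inhibition.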
# Tests used:
# Assay in all cases: NCI tumour cell line growth inhibition, 48 h
# [1] = system: KM20L2 colon
# [2] = system: DLD-1 colon
# [3] = system: XF 498 CNS
# [4] = system: LXFL 529 NSCLC
# [5] = system: HOP-18 NSCLC
# [6] = system: DMS 114 small cell lung
# [7] = system: MDA-N
# [8] = system: M19-MEL melanoma
# [9] = system: RXF-631 renal
# [10] = system: P388 leukemia
# [11] = system: SN12K1 renal
SMILES,TGI [1] [µM],TGI [2] [µM],TGI [3] [µM],TGI [4] [µM],TGI [5] [µM],TGI [6] [µM],TGI [7],TGI [8] [µM],TGI [9] [µM],further results
CCCCCCCCCCCCOC(=S)NC,33.9,34.3,35.7,31.4,50.1,37.5,,,,
NC(N)=N/N=C(/c1ccccc1)c1ccc(O)cc1O,,,,,,,28.6 µM,,,
CC(=O)NNc1nc(C)c(C(/C=C/c2ccc(Cl)cc2)=N/NC(=S)NN)s1,> 100,> 100,> 100,> 100,> 100,> 100,,> 100,> 100,
COc1cc(CCC(=O)NS(=O)(=O)c2ccccc2)cc(OC)c1OC,> 100,> 100,> 100,> 100,> 100,> 100,,,,
COc1ccc(CC(C#N)c2cc(OC)c(OC)c(OC)c2)cc1 (stereo not given),0.195,> 100,28.6,> 100,,,,> 100,,
Oc1oc(-c2ccccc2)nc1/C=C1/C=NN=N1,,,,,,,> 100 µM,,,
CN(Cc1ccccc1)c1nc(=[N+](C)C)ss1,> 100,> 100,> 100,> 100,> 100,> 100,,> 100,> 100,
c1cc(C2N3CCCN2CC3)ccn1 (stereo not given),,,,,,,> 100 µM,,,
Cc1cccc(NC(=O)Cc2nc3ccccc3s2)c1C,> 100,> 100,> 100,> 100,,> 100,,> 100,> 100,
CCc1ccccc1NC(=O)C1=C(C)NC(C)=C(C(=O)Nc2ccccc2CC)C1c1ccc(NC(C)=O)cc1,58.8,87.6,,87.2,,> 100,,> 100,,
O/N=C1/C(=C/c2ccc(Cl)cc2)CCCC1C(NO)c1ccc(Cl)cc1 (stereo not given),36.6,> 100,60.1,> 100,55.1,81.8,,54.7,41,
CCCCCC/C=C/CCCCCCCc1cccc(O)c1C(=O)O,> 100,> 100,> 100,> 100,> 100,> 100,,> 100,> 100,
Cc1cccc2cc3ccc4ccccc4c3cc12,,,,,,,> 100 µM,,,
O=C(O)C1=C(Cl)c2ccccc2S1(=O)=O,> 100,> 100,> 100,> 100,,> 100,,> 100,> 100,
CN1CCN(c2ccc([N+](=O)[O-])c3no[n+]([O-])c23)CC1,,,,,,,2.74 µM,,,
C/C(CC(=O)Nc1ccc(NC(=O)/C(C)=N/NS(=O)(=O)c2ccc(C)cc2)cc1)=N\NS(=O)(=O)c1ccc(C)cc1,> 100,> 100,,> 100,,> 100,,> 100,,
CC(C)c1ccc(O)c(O)c(=O)c1 (tested in a mixture with another compound),,,,,,,> 100 µM,,,
CC(=O)Oc1cc(OC(C)=O)c2cc3c(cc2c1OC(C)=O)C(=O)C1(CCCC1)C3=O,46.3,37,30,,38.5,31.6,,32,,
N#CNc1nc(C(=O)Nc2ccc(Cl)cc2)cc(-c2ccccc2)n1,> 100,> 100,> 100,> 100,> 100,> 100,,> 100,> 100,
CCN1CCC(O)(c2ccc(Cl)c(Cl)c2)C(C(=O)c2ccc(Cl)c(Cl)c2)C1 (stereo not given),36.6,33,34.4,30.1,,33.9,,,,
CC(=O)[CH-]C(=O)c1ccccc1.CC(=O)[CH-]C(=O)c1ccccc1.CC[O-].O=C1C=C([O-])C(=O)c2ccccc21.[Ti+4],> 100,> 100,,> 100,> 100,,,,,GI50 [1]: 42.4 µM; GI50 [2]: > 100 µM; GI50 [4]: 48.8 µM; GI50 [5]: 95.4 µM
C=C(C)C(=O)N1c2ccc(OC)cc2CC1C(=O)OCC (stereo not given),,,,,,,> 100 µM,,,
CC(=O)OC1C/C(C)=C/[C@H](O)CC(C)/C=C/[C@@]2(C)CCC(C(C)(C)O)C12 (stereo not given in full),> 100,> 100,> 100,> 100,> 100,> 100,,> 100,> 100,
C=C(C)C1CCC2(CO)C(O)CC3(C)C(CCC4C5(C)CCC(O)C(C)(C)C5CCC43C)C12 (stereo not given),,,,,,,> 100 µM,,,

SMILES,TGI [1] [µM],TGI [2] [µM],TGI [3] [µM],TGI [4] [µM],TGI [5] [µM],TGI [6] [µM],TGI [7],TGI [8] [µM],TGI [9] [µM],further results
O=C(Nc1ccccc1)OCc1nc2c([nH]1)C(=O)C=CC2=O,41,> 100,30.9,11.1,23,,,29.5,,
O=C1c2c(O)cccc2C(C(=O)CCCC(=O)C2c3cccc(O)c3C(=O)c3c(O)cccc32)c2cccc(O)c21,8.68,7,0.226,0.48,0.828,0.502,3.39 µM,4.17,3.99,
CN(/C(=N\O)c1ccccc1)c1ccccc1,41.5,> 100,,> 100,,86.1,,> 100,,
O/N=C1/C(=C/c2ccccc2)CCCC1C(NO)c1ccccc1 (stereo not given),> 100,,99.2,> 100,> 100,> 100,,> 100,> 100,
COC(=O)C1CCC(N2C(=O)CCC2C(=O)OC)=N1 (stereo not given),> 100,> 100,> 100,> 100,> 100,,,> 100,> 100,
CN(C(=O)C1CC1)C1C2CN3CCC(O2)C13 (stereo not given),> 100,> 100,,> 100,> 100,> 100,,> 100,,
COc1cc(C(=C2SCCS2)c2nccc3cc(OC)c(OC)cc23)c([N+](=O)[O-])cc1OC,> 100,> 100,> 100,> 100,> 100,> 100,,> 100,,
CCCCc1oc2ccccc2c1C(=O)c1cc(I)c(OCCN(CC)CC)c(I)c1,,54.1,8.25,,1.29,,,,,TGI [10]: 11.2 µM; TGI [11]: 7.45 µM
CCCCCCCCCCCCCCCCCCOCC1(COP(=O)([O-])OCC[N+](C)(C)C)CCCO1 (stereo not given),11.9,12.5,20.5,16.6,10.9,18.1,,10.8,,
Cn1c(=O)c2[nH]cnc2n(CC(=O)O)c1=O,> 100,> 100,> 100,> 100,,> 100,,> 100,> 100,
CCCCCC/C=C\CCCCCCCCCc1c(O)c(OC)cc(O)c1CN(C)C,,,,,,,32.2 µM,,,
c1ccc([P+](CCC[P+](c2ccccc2)(c2ccccc2)c2ccccc2)(c2ccccc2)c2ccccc2)cc1,> 100,> 100,77.9,> 100,> 100,71,,> 100,> 100,
COc1ccc(NCc2c(O)ccc3ccccc23)cc1,,,,,,,> 100 µM,,,
CCOC(CN(C)C(=O)OCC(Cl)(Cl)Cl)OCC,,,,,,,> 100 µM,,,
NC(=O)C12CCC1C1CCCCC12N1CCOCC1 (stereo not given),> 100,> 100,,> 100,> 100,,,> 100,> 100,
CC(C)[C@H](O)C(=O)N[C@H]1Cc2ccc3c(c2)[C@]24C5=C(N=C(O5)[C@H](C(C)C)NC1=O)c1nc(Cl)c(o1)-c1c(Cl)[nH]c5cccc(c15)-c1cccc2c1N[C@H]4O3,,,,,,,0.00429 µM,,,
C[n+]1ccc2[nH]c3ccccc3c2c1,> 100,> 100,,> 100,> 100,,,> 100,,
COC(=O)NN=C1C(C)(C)C(=NNC(=O)OC)C1(C)C,> 100,> 100,> 100,> 100,> 100,> 56.7,,> 63.3,> 100,
CO[C@@]12[C@H](COC(N)=O)C3=C(C(=O)C(C)=C(N)C3=O)N1C[C@@H]1N[C@@H]12,10.2,17.2,,7.53,7.59,5.08,7.44 µM and 19.1 µM,,,TGI [10]: 9.62 µM; GI50 [7]: 2.11 µM and 2.67 µM; TGI [11]: 7.65 µM
C=CC1=C(C)C(Cc2[nH]c(/C=c3\[nH]/c(=C/C4=NC(=O)C(C)/C4=C\C)c(C)c3CCC(=O)O)c(CCC(=O)OC)c2C)NC1=O (stereo not given),,,,,,,66.7 µM,,,GI50 [7]: 25.6 µM
O=C(Cc1nc2ccccc2s1)C(=O)Nc1ccc(Cl)cc1Cl,> 100,> 100,> 100,> 100,,,,> 100,> 100,
CCC[CH2][Sn]1([CH2]CCC)[O]CC([CH2][Sn]([c]2ccccc2)([c]2ccccc2)[c]2ccccc2)[O]1 (stereo not given),,18.4,28.6,,25.2,13.5,,21.2,30.5,GI50 [2]: 5.92 µM; GI50 [3]: 15.3 µM; GI50 [5]: 12.7 µM; GI50 [6]: 3.18 µM; GI50 [8]: 8.82 µM; GI50 [9]: 10.7 µM
CN(C)NC(=S)NC12CC3CC(CC(C3)C1)C2,> 100,> 100,> 100,> 100,> 100,> 100,,> 100,,
CC(=O)[CH-]C(=O)c1ccccc1.CC(=O)[CH-]C(=O)c1ccccc1.CC12CC3(C)CC(C)(C1)CC([O-])(C2)C3.CC[O-].[Ti+4],> 100,78.6,,,> 100,,,,,GI50 [1]: 35.2 µM; GI50 [2]: 17 µM; GI50 [5]: 37.4 µM
